Each block holds one compound with its values, some of them ahead of it.
Legend:
[1] = in vivo; cited from earlier work
[2] = Formation of 5-HLAQ on light exposure of laquinimod, determined by HPLC; format: physicochemical
Description: Various forms of laquinimod were exposed to light, as specified below. Presence of 5-HLAQ was determined using HPLC.

[3] = Influence of blister pack material on photo-degradation of laquinimod 0.6 mg capsules; format: physicochemical
Description: The goal of this study is to examine the photo-degradation of laquinimod sodium capsules, 0.6 mg, packed in blisters of various materials.
One batch of laquinimod sodium capsules, 0.6 mg/capsule was packed into four different types of blisters: PVC/AC/PVDC/PVLE/P058 504 142 (transparent), PVC/PE-EVOH/AC (A 300) G03 140 MM (transparent), A-/PVC/PE-EVOH/AC-PC (opaque), and KPMAX WH (opaque). Control was the same batch not exposed to sunlight in HDPE 50 cc DUMA™ bottle.

[4] = tested on: acute experimental autoimmune encephalomyelitis (aEAE) model; conditions: U.S. Pat. No. 6,077,851; cited from earlier work
[5] = tested on: active MRI lesions in relapsing MS; conditions: Polman et al. 2005; cited from earlier work
[6] = Stability of 5-HLAQ in solvents; format: physicochemical; conditions: in most of the organic solvents as well as in aqueous acidic conditions
From the text: N-Ethyl-N-phenyl-1,2-dihydro-4,5-di-hydroxy-1-methyl-2-oxo-3-quinolinecarboxamide (5-HLAQ) is not stable in most of the organic solvents as well as in aqueous acidic conditions. Therefore common purification methods were extremely difficult. The di-acetate derivative Compound 3 is an elegant way to purify the material followed only by basic hydrolysis, acidic precipitation and rapid filtration.

Structure (SMILES): CCN(C(=O)c1c(O)c2c(Cl)cccc2n(C)c1=O)c1ccccc1 [Laquinimod sodium]
Oral bioavailability [1]: high

Presence of 5-HLAQ (wt %) ([2]; Light chamber 310-400 nm (~8 hrs.), 0.05 mg/ml in 0.02M HCl): 1.5 wt %
Presence of 5-HLAQ (wt %) ([2]; Light chamber 310-400 nm (~8 hrs.), 0.05 mg/ml in 0.02M NaOH): 71 wt %
Presence of 5-HLAQ (wt %) ([2]; Light chamber 310-400 nm (~8 hrs.), 1 mg/ml in 0.02M NaOH, relative to laquinimod before photodegradation): 33 wt %
Presence of 5-HLAQ (wt %) ([2]; Sunlight cabinet (5 minutes), 0.09 mg/ml aqueous solution): 11.8 wt %
Sensitivity to light [3]: sensitive to light
Structure (SMILES): CCN(C(=O)c1c(O)c2c(Cl)cccc2n(C)c1=O)c1ccccc1 [Laquinimod, N-ethyl-N-phenyl-1,2-dihydro-4-hydroxy-5-chloro-1-methyl-2-oxoquinoline-3-carboxamide]
Efficacy in aEAE model [4]: effective
Development of active MRI lesions [5]: can reduce development of active MRI lesions

Stability in solvents [6]: not stable
Structure (SMILES): CCN(C(=O)c1c(O)c2c(O)cccc2n(C)c1=O)c1ccccc1 [Compound 5-HLAQ, N-Ethyl-N-phenyl-1,2-dihydro-4,5-di-hydroxy-1-methyl-2-oxo-3-quinolinecarboxamide]

— patent US9284276B2, “N-ethyl-N-phenyl-1,2-dihydro-4,5-di-hydroxy-1-methyl-2-oxo-3-quinolinecarboxamide, preparation and uses thereof” (TEVA PHARMACEUTICAL INDUSTRIES, LTD., priority 2012, dated 2016)
